# According to patent US12522594B2, “2-heteroaryl-3-oxo-2,3-dihydropyridazine-4-carboxamides for the treatment of cancer” (Deutsches Krebsforschungszentrum, priority 2017, dated 2026):
# Legend:
# Type in all cases: cell-based
# AHR [1] = target: T1, AHR (Homo sapiens, UniProt P35869); test: In vitro assay 3: AHR-regulated CYP1A1 expression in human cell line (U937, qPCR, KA stimulation); settings: U937 cells, 200 uM KA, 6 hours, CYP1A1 expression by qPCR; read-out: Assay 3: Hum CYP1A1 Antagonism IC50
# T1 sequence (P35869 11-848): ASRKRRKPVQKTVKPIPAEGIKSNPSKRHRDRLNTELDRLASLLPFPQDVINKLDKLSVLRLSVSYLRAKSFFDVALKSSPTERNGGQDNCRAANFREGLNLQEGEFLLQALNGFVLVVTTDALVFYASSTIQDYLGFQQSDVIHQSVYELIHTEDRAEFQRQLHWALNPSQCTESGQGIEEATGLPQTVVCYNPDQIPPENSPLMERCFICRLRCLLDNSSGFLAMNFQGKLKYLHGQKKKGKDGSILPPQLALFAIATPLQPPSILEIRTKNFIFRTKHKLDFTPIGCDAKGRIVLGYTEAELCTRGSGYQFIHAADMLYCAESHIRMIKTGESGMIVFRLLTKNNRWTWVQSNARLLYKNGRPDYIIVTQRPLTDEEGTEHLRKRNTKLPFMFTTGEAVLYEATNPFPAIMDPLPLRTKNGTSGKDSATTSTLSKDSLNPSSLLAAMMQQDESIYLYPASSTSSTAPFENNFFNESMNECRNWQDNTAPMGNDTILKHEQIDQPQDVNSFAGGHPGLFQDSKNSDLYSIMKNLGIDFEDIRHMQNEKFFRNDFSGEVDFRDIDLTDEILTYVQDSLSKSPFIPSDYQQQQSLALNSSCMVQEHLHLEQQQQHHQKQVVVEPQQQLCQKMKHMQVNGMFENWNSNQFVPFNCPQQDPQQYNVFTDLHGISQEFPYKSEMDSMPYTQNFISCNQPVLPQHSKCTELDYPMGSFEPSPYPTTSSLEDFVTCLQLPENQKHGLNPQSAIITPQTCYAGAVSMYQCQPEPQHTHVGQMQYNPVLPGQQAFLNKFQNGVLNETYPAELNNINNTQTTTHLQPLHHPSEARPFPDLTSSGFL
# Procedure: In Vitro Assay 3: AHR-Regulated CYP1A1 Expression in Human Cell Line
# To assess the AHR inhibitory activity of the substances described in this application, the ability thereof to antagonise ligand-induced AHR gene regulation in a dose-dependent manner was quantified. For this purpose, quantitative PCR analysis was used to determine expression of the AHR-regulated gene CYP1A1 in a human monocytic U937 cell line upon stimulation with 200 uM KA in the presence and absence of AHR inhibitor. […] CYP1A1 expression was induced with 200 uM KA (positive control) in the presence or absence of the substances for 6 hours. Human U937 cells were typically incubated with eight different concentrations of the substances (1 nM, 3 nM, 10 nM, 30 nM, 100 nM, 300 nM, 1 uM and 3 uM) and analyzed in duplicate on the same microtitre plate. […] Unstimulated cells were used as the negative control. Taqman probes for human CYP1A1 (Hs01054797_g1) and human HPRT (Hs02800695_m1) were used to analyze fold expression of CYP1A1 of HPRT. Quantitation was performed on a Taqman SDS7900HT.
# AHR [2] = target: T1, AHR; test: In vitro assay 2: agonism in human cell line (transactivation assay, U87 cells, DRE firefly luciferase reporter); design: host or cells: U87 glioblastoma cells, stably transfected with DRE firefly luciferase and renilla reporter constructs; settings: no kynurenic acid, 20 hours, read-out: Assay 2: AHR-luc Hum Agonism IC50
# Procedure, shortened: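 U87 glioblastoma cells with endogenous AHR, stably carrying DRE-driven firefly luciferase and constitutive renilla reporters. 300 uM kynurenic acid served as positive activation control; data normalized to positive and negative controls.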
# AHR [3] = target: T1, AHR; test: In vitro assay 1: antagonism in human cell line (transactivation assay, U87 cells prestimulated with kynurenic acid, DRE firefly luciferase reporter); design: host or cells: U87 glioblastoma cells, stably transfected with DRE firefly luciferase and renilla reporter constructs; settings: 150 uM kynurenic acid, 20 hours, read-out: Assay 1: AHR-luc Hum Antagonism IC50
# Procedure, shortened: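 U87 glioblastoma cells with endogenous AHR, stably carrying a DRE-driven firefly luciferase reporter and a constitutive renilla reporter. Cells prestimulated with the AHR agonist kynurenic acid before compound addition; data normalized to positive and negative controls.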
Compound,IC50 (AHR [1]) [nM],IC50 (AHR [2]) [µM],IC50 (AHR [3]) [nM]
"O=C(N[C@H]1CCC[C@H]1O)c1cc(-c2ccc(C(F)(F)F)cc2)nn(-c2cccnc2)c1=O [Example 105, N-[(1S,2R)-2-Hydroxycyclopentyl]-3-oxo-2-(pyridin-3-yl)-6-[4-(trifluoromethyl)phenyl]-2,3-dihydropyridazine-4-carboxamide]",1.86,> 20,2.37
"O=C(N[C@H]1COC[C@H]1O)c1cc(-c2ccc(Cl)cc2)nn(-c2cccnc2)c1=O (single isomer, unassigned) [Example 173, 6-(4-Chlorophenyl)-N-[(cis)-4-hydroxytetrahydrofuran-3-yl]-3-oxo-2-(pyridin-3-yl)-2,3-dihydropyridazine-4-carboxamide]",140,> 20,54.9
"O=C(NC(CO)C(F)(F)F)c1cc(-c2ccc(OC(F)(F)F)cc2)nn(-c2cccnc2)c1=O (stereo not drawn) [Example 149, 3-Oxo-2-(pyridin-3-yl)-N-(1,1,1-trifluoro-3-hydroxypropan-2-yl)-6-[4-(trifluoromethoxy)phenyl]-2,3-dihydropyridazine-4-carboxamide]",11.2,> 20,18.8
"Cn1cc(-n2nc(-c3ccc(Cl)cc3)cc(C(=O)N[C@H]3COCC[C@H]3O)c2=O)cn1 [Example 61, 1,5-Anhydro-2-({[6-(4-chlorophenyl)-2-(1-methyl-1H-pyrazol-4-yl)-3-oxo-2,3-dihydropyridazin-4-yl]carbonyl}amino)-2,4-dideoxy-D-erythro-pentitol]",38.9,> 20,28.4
"C[C@@H](CO)NC(=O)c1cc(-c2ccc(N(C)C)cc2)nn(-c2cnn(C)c2)c1=O [Example 311, 6-[4-(Dimethylamino)phenyl]-N-[(2S)-1-hydroxypropan-2-yl]-2-(1-methyl-1H-pyrazol-4-yl)-3-oxo-2,3-dihydropyridazine-4-carboxamide]",1.03,> 20,1.82
"C[C@H](NC(=O)c1cc(-c2ccc(Cl)cc2)nn(-c2cnn(C(F)F)c2)c1=O)C(C)(C)O [Example 264, 6-(4-Chlorophenyl)-2-[1-(difluoromethyl)-1H-pyrazol-4-yl]-N-[(2S)-3-hydroxy-3-methylbutan-2-yl]-3-oxo-2,3-dihydropyridazine-4-carboxamide]",85.6,> 20,44.4
"O=C(NC[C@H](O)C(F)(F)F)c1cc(-c2ccc(Cl)cc2)nn(-c2csc(Cl)c2)c1=O [Example 232, 6-(4-Chlorophenyl)-2-(5-chloro-3-thienyl)-3-oxo-N-[(2S)-3,3,3-trifluoro-2-hydroxypropyl]-2,3-dihydropyridazine-4-carboxamide]",7.38,> 20,8.16
"O=C(NCC(O)C(F)(F)F)c1cc(-c2ccc(Cl)cc2)nn(-c2cccnc2)c1=O (single isomer, unassigned; (-)) [Example 89, (−)-6-(4-Chlorophenyl)-3-oxo-2-(pyridin-3-yl)-N-(3,3,3-trifluoro-2-hydroxypropyl)-2,3-dihydropyridazine-4-carboxamide]",2.64,> 20,4.8
"O=C(NC[C@H](O)C(F)(F)F)c1cc(-c2ccc(OC(F)F)cc2)nn(-c2cccnc2)c1=O [Example 314, 6-[4-(Difluoromethoxy)phenyl]-3-oxo-2-(pyridin-3-yl)-N-[(2S)-3,3,3-trifluoro-2-hydroxypropyl]-2,3-dihydropyridazine-4-carboxamide]",10.9,> 20,5.8
"O=C(N[C@H](CO)C1CC1)c1cc(-c2ccc(C(F)(F)F)cc2)nn(-c2cccnc2)c1=O [Example 94, N-[(1S)-1-Cyclopropyl-2-hydroxyethyl]-3-oxo-2-(pyridin-3-yl)-6-[4-(trifluoromethyl)phenyl]-2,3-dihydropyridazine-4-carboxamide]",16.5,> 20,8.44
"O=C(N[C@@H]1COC[C@@H]1O)c1cc(-c2ccc(C(F)(F)F)cc2)nn(-c2cccnc2)c1=O (single isomer, unassigned) [Example 229, (+)-N-cis-4-Hydroxytetra-hydrofuran-3-yl-3-oxo-2-(pyridin-3-yl)-6-[4-(trifluoromethyl)phenyl]-2,3-dihydropyridazine-4-carboxamide]",12.2,> 20,7.09
"C[C@H](NC(=O)c1cc(-c2ccc(C(F)(F)F)cc2)nn(-c2cn[nH]c2)c1=O)C(C)(C)O [Example 260, N-[(2S)-3-Hydroxy-3-methylbutan-2-yl]-3-oxo-2-(1H-pyrazol-4-yl)-6-[4-(trifluoromethyl)phenyl]-2,3-dihydropyridazine-4-carboxamide]",14.4,> 20,29.4
"CC(C)(O)CNC(=O)c1cc(-c2ccc(C(F)F)cc2)nn(-c2cccnc2)c1=O [Example 322, 6-[4-(Difluoromethyl)phenyl]-N-(2-hydroxy-2-methylpropyl)-3-oxo-2-(pyridin-3-yl)-2,3-dihydropyridazine-4-carboxamide]",31.1,> 20,56.7
"Cn1cc(-n2nc(-c3ccc(C(F)F)cc3)cc(C(=O)N[C@@H]3COC[C@@H]3O)c2=O)cn1 (single isomer, unassigned) [Example 315, 6-[4-(Difluoromethyl)phenyl]-N-[(cis)-4-hydroxytetrahydro-furan-3-yl]-2-(1-methyl-1H-pyrazol-4-yl)-3-oxo-2,3-dihydropyridazine-4-carboxamide]",11.9,> 20,15.9
"Cc1ccc(-c2cc(C(=O)N[C@@H](C)CO)c(=O)n(-c3cccnc3)n2)cc1 [Example 152, N-[(2S)-1-Hydroxypropan-2-yl]-6-(4-methylphenyl)-3-oxo-2-(pyridin-3-yl)-2,3-dihydropyridazine-4-carboxamide]",21.3,> 20,24.1
"Cn1cc(-n2nc(-c3ccc(Cl)cc3)cc(C(=O)N[C@H](CO)C(F)(F)F)c2=O)cn1 [Example 35, (+)-6-(4-Chlorophenyl)-2-(1-methyl-1H-pyrazol-4-yl)-3-oxo-N-[(2R)-1,1,1-trifluoro-3-hydroxypropan-2-yl]-2,3-dihydropyridazine-4-carboxamide]",41,> 20,1.5
"C[C@@H](CO)NC(=O)c1cc(-c2ccc(OC(F)(F)F)cc2)nn(-c2cnn(C)c2)c1=O [Example 53, N-[(2S)-1-Hydroxypropan-2-yl]-2-(1-methyl-1H-pyrazol-4-yl)-3-oxo-6-[4-(trifluoromethoxy)phenyl]-2,3-dihydropyridazine-4-carboxamide]",11.1,> 20,11.6
"CC(C)(O)C(NC(=O)c1cc(-c2ccc(C(F)(F)F)cc2)nn(-c2cccnc2)c1=O)C(F)(F)F (single isomer, unassigned; (-)) [Example 241, (−)-3-Oxo-2-(pyridin-3-yl)-N-(1,1,1-trifluoro-3-hydroxy-3-methylbutan-2-yl)-6-[4-(trifluoromethyl)phenyl]-2,3-dihydropyridazine-4-carboxamide]",36.3,> 20,10.9
